Residues, ends and D or L forms follow the SMILES beside them. *: point of attachment. Cbz = O=C(OCc1ccccc1)*; NHOH = ON*

The target of one assay is T1, type IV collagenases (Homo sapiens, UniProt P08253).
T1 construct: type IV collagenases prepared from a serum-free culture medium of human melanoma cells; endogenous in cells
T1 sequence (P08253 110-660): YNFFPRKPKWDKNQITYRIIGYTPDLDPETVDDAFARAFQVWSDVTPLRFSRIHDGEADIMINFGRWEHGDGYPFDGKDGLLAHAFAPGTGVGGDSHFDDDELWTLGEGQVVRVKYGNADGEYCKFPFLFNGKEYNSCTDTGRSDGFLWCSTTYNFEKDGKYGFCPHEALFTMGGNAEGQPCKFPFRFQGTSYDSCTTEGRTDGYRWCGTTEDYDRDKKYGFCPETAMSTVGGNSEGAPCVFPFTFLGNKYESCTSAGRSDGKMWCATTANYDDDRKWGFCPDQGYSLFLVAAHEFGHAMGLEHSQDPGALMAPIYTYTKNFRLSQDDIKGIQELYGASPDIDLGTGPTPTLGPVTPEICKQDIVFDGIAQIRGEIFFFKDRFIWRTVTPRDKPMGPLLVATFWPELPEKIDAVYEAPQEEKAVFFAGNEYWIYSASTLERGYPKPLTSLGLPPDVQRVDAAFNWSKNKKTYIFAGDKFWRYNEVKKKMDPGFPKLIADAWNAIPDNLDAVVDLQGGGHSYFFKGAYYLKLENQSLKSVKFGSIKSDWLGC
Briefly: Inhibitory activity on type IV collagenases: cleavage of radio-labelled type IV collagen. As to conditions: type IV collagenases from serum-free culture medium of human melanoma cells; radio-labelled type IV collagen from mouse EHS tumor as substrate. The format is biochemical. The procedure:
The activity of type IV collagenase was assayed according to the method of Salo et al. [J. Biol. Chem., Vol. 258, 3058-3063 (1983)].
In detail, the activity was assayed by measuring the cleavage of collagen by using type IV collagenases prepared from a serum-free culture medium of human melanoma cells, and type IV collagen prepared from mouse EHS tumor radio-labelled as a substrate.
The inhibitory activity on type IV collagenases was measured by calculating the inhibition percent of the enzyme reaction, in which the test samples were added to the reaction mixture.
The results (expressed as I50) is shown below.
As for `CCCCC[C@H](CC(=O)NO)C(=O)N1NCCC[C@H]1C(=O)N[C@H](C(=O)N(C)OC)C(C)C` [Example 3, 2-(S)-[N^2-[2-(R)-(Hydroxyaminocarbonyl)methyl-1-oxoheptyl]-(S)-piperazyl]aminoisovaleric acid N-methyl-N-methoxyamide], it took 330 nM to reach half-maximal inhibition (IC50).
In turn, `CCCCC[C@H](CC(=O)NO)C(=O)N1NCCC[C@H]1C(=O)N[C@H](C(=O)OC)C(C)C` [Example 4, Methyl 2-(S)-[N^2-[2-(R)-(Hydroxyaminocarbonyl)methyl-1-oxoheptyl]-(S)-piperazyl]aminoisovalerate] came in with an IC50 of 350 nM.
Same read-out and setting: as for `CCCCC[C@H](CC(=O)NO)C(=O)N1NCCC[C@H]1C(=O)N[C@H](C(=O)OC(C)(C)C)C(C)C` [Example 5], the figure is 360 nM.
`CCCCCC[C@H](CC(=O)NO)C(=O)N1NCCC[C@H]1C(=O)NC` [Example 14, N^2-[2-(R)-(Hydroxyaminocarbonyl)methyl-1-oxooctyl]-(S)-piperazic acid N-methylamide] registered an IC50 of 82 nM.
Same read-out and setting: as for `CCCCCCC[C@H](CC(=O)NO)C(=O)N1NCCC[C@H]1C(=O)NC` [Example 16, N^2-[2-(R)-(Hydroxyaminocarbonyl)methyl-1-oxononyl]-(S)-piperazic acid N-methylamide], the figure is 42 nM; as for `CCCCCCC[C@H](CC(=O)NO)C(=O)N1NCCC[C@H]1C(=O)N(C)C` [Example 17, N^2-[2-(R)-(Hydroxyaminocarbonyl)methyl-1-oxononyl]-(S)-piperazic acid N,N-dimethylamide], 270 nM; as for `CCCCCCCCCC[C@H](CC(=O)NO)C(=O)N1NCCC[C@H]1C(=O)NC` [Example 18, N^2-[2-(R)-(Hydroxyaminocarbonyl)methyl-1-oxododecyl]-(S)-piperazic acid N-methylamide], 27 nM.
On to `CCCCCCCCCC[C@H](CC(=O)NO)C(=O)N1NCCC[C@H]1C(=O)N(C)C` [Example 19, N^2-[2-(R)-(Hydroxyaminocarbonyl)methyl-1-oxododecyl]-(S)-piperazic acid N,N-dimethylamide], for which the IC50 came out at 80 nM.
Same read-out and setting: as for `CNC(=O)[C@@H]1CCCNN1C(=O)[C@H](CCc1ccccc1)CC(=O)NO` [Example 20, N^2-[2-(R)-(Hydroxyaminocarbonyl)methyl-1-oxo-4-phenylbutyl]-(S)-piperazic acid N-methylamide], the figure is 73 nM.
Regarding `CN(C)C(=O)[C@@H]1CCCNN1C(=O)[C@H](CCc1ccccc1)CC(=O)NO` [Example 21, N^2-[2-(R)-(Hydroxyaminocarbonyl)methyl-1-oxo-4-phenylbutyl]-(S)-piperazic acid N,N-dimethylamide], half-maximal inhibition (IC50) was put at 280 nM.
For `CCCCC[C@H](CC(=O)NO)C(=O)N1NCCC[C@H]1C(=O)NCC` [Example 27, N^2-[2-(R)-(Hydroxyaminocarbonyl)methyl-1-oxoheptyl]-(S)-piperazic acid N-ethylamide], it took 160 nM to reach half-maximal inhibition (IC50).
For `CCCCC[C@H](CC(=O)NO)C(=O)N1NCCC[C@H]1C(N)=O` [Example 29, N^2-[2-(R)-(Hydroxyaminocarbonyl)methyl-1-oxoheptyl]-(S)-piperazylamide], half-maximal inhibition (IC50) was put at 250 nM.
On the same count and under the same terms, as for `CCCCC[C@H](CC(=O)NO)C(=O)N1NCCC[C@H]1C(=O)NCC(C)C` [Example 30, N^2-[2-(R)-(Hydroxyaminocarbonyl)methyl-1-oxoheptyl]-(S)-piperazic acid N-isobutylamide], the figure is 240 nM; as for `CC(C)C[C@H](CC(=O)NO)C(=O)N1NCCC[C@H]1C(=O)N(C)C` [Example 32, N^2-[2-(R)-(Hydroxyaminocarbonyl)methyl-1-oxo-4-methyl-pentyl]-(S)-piperazic acid N,N-dimethylamide], 750 nM; as for `CCCCCCCC[C@H](CC(=O)NO)C(=O)N1NCCC[C@H]1C(=O)N(C)C` [Example 33, N^2-[2-(R)-(Hydroxyaminocarbonyl)methyl-1-oxodecyl]-(S)-piperazic acid N,N-dimethylamide], 64 nM.
Compound `CCCCCCCC[C@H](CC(=O)NO)C(=O)N1NCCC[C@H]1C(=O)NCC` [Example 34, N^2-[2-(R)-(Hydroxyaminocarbonyl)methyl-1-oxodecyl]-(S)-piperazic acid N-ethylamide] gave a concentration for half-maximal inhibition (IC50) of 37 nM.
Still for that read-out and setting: as for `CCCCCCCC[C@H](CC(=O)NO)C(=O)N1NCCC[C@H]1C(=O)N(CC)CC` [Example 35, N^2-[2-(R)-(Hydroxyaminocarbonyl)methyl-1-oxodecyl]-(S)-piperazic acid N,N-diethylamide], the figure is 200 nM; as for `CCCCC[C@H](CC(=O)NO)C(=O)N1NCCC[C@H]1C(=O)N[C@H](C(=O)CC)[C@@H](C)CC` [Example 108, reference compound], 1400 nM; as for `CCCCC[C@H](CC(=O)NO)C(=O)N1NCCC[C@H]1C(=O)N[C@@H](C(=O)CC)[C@H](C)CC` [Example 109, N^2-[2-(R)-(Hydroxyaminocarbonyl)methyl-1-oxoheptyl]-(S)-piperazic acid (4R,5R)-5-methyl-3-oxoheptan-4-ylamide, reference compound], 4300 nM.
`CCCCC[C@H](CC(=O)NO)C(=O)N1NCCC[C@@H]1C(=O)N[C@H](C(=O)CC)[C@@H](C)CC` [Example 110, N^2-[2-(R)-(Hydroxyaminocarbonyl)methyl-1-oxoheptyl]-(R)-piperazic acid (4S,5S)-methyl-3-oxoheptan-4-ylamide, reference compound] gave an IC50 of 18500 nM.

A further assay has as its system type IV collagenases.
Assay: not given
As to conditions: cited from earlier work.
Consider `CNC(=O)[C@H](Cc1ccc(OC)cc1)NC(=O)[C@@H](CC(=O)NO)CC(C)C` [SC 44463], for which the “inhibitor relatively specific to type IV collagenases” value is on record as “inhibitor relatively specific to type IV collagenases”.

Another assay has as its system cancer metastasis.
Assay: not given
Conditions: animal experiment; cited from earlier work.
As to `CNC(=O)[C@H](Cc1ccc(OC)cc1)NC(=O)[C@@H](CC(=O)NO)CC(C)C` [SC 44463], the “inhibitory activity on cancer metastasis” value is given as “confirmed to exhibit an inhibitory activity on cancer metastasis”.

The subject of the next assay is aminopeptidase M.
Assay: not given
Conditions: low concentrations; cited from earlier work.
As to `CCCCC[C@H](CC(=O)NO)C(=O)N[C@H](C(=O)N1CCC[C@H]1CO)C(C)C` [actinonin], the “inhibition of aminopeptidase M” value is “inhibit aminopeptidase M at low concentrations”.

Another assay relates to collagenase.
Assay: not given
Conditions: cited from earlier work.
Turning to `CCCCCC(CC(=O)NO)C(=O)N1NCCCC1C(=O)NC(CC(C)C)C(C)=O` (stereo not drawn), the collagenase inhibiting activity result is recorded as “collagenase inhibiting activities”.
Take `CC(C)C[C@H](NC(=O)[C@@H]1CCCN1C(=O)OCc1ccccc1)C(=O)NCC(=O)NO` [benzyloxycarbonyl propyl-leucyl-glycylhydroxamic acid] (Cbz-Pro-Leu-Gly-{NHOH}): the collagenase inhibiting activity entry is given as “showing collagenase inhibiting effects”.

A further assay concerns bacteria.
Assay: not given
Conditions: cited from earlier work.
For the compound `CCCCCC(CC(=O)NO)C(=O)N1NCCCC1C(=O)NC(CC(C)C)C(C)=O` (stereo not drawn), the antibacterial activity result is reported as “antibacterial”.
With `CCCCCC(CC(=O)NO)C(=O)N1NCCCC1C(=O)NC(C(=O)CC)C(C)CC` (stereo not drawn), the antibacterial activity result is reported as “antibacterial activity”.
